Data as given in patent US9173935B2, “Phospholipid drug analogs” (Telormedix SA, priority 2010, dated 2015).
Where two headings read alike, the source gives them in different places.

Key:
[1] = test system: Cutaneous Squamous Cell Carcinoma cell lines SCL-I, SCL-II, SCC-12, SCC-13; assay: Direct proapoptotic and cytotoxic effects on SCC cells (real-time cell analysis, microscopy); type: cell-based, human
Description: SCC cells are grown under standard conditions (10% FBS).
Time and dose dependency of effects on total cell numbers have been investigated by real-time cell analysis, which is based on continuous monitoring of electric conductance in microtiter wells (E-plates, Roche), which corresponds to the cell numbers. […] For these assays 4 cell lines should be used to obtain a representative overview on the effects on SCC cells.

CYP1A2 = CYP1A2 (Homo sapiens (Human), UniProt P05177); assay: Fluorescent High Throughput P450 assay, CYP1A2; type: biochemical; conditions: substrate CEC; read-out: CYP1A2 IC50 (Mean ± S.D.)
Description: (§4) Inhibition of the P450 isoforms was measured in specific assays using specific substrates that become fluorescent upon CYP metabolism. Compounds, dissolved in ACN (acetonitrile) (CYP2E1, CYP2C8, CYP2B6, CYP3A5) or DMSO (all remaining isoforms), were tested in duplicate (n=2) in concentration-response curves (eight concentrations) in a 96-well plate containing incubation/NADPH regenerating buffer. Specific isoenzymes and substrates were added and incubated at 37° C. Reactions were terminated at different times, depending on the assays, and plates read on a Fluoroskan Ascent at the appropriate emission/excitation wavelengths. Concentration-response curves performed in duplicate for known inhibitors for each isoenzyme were tested in every assay as positive control.

human PBMCs = assay: IL-6 secretion in human PBMCs, two batches of Compound A and SC12; type: cell-based; conditions: 24 h, 4 doses
Description: PBMCs were purified from two donors and plated into 96 well plates at 2×10^5 cells/well in RPMI media including human 2% heat inactivated AB serum, glutamine, Pen-strep and R-mercapto-ethanol. The cells were treated with TLR7 agonists for 24 h in 4 doses. The conditioned media was removed for ELISA analyses for IL-6, and the EC50 value determined for each compound and each batch.
All compounds were tested in four concentrations (10-1-0.1-0.01 micromolar).
Concentrations of IL-6 were determined by ELISA from R&D Systems using the Microsoft Excel software. The results were analyzed in Graph Pad Prism in order to prepare dose-response curves, and for determination of EC50 values.

CYP3A4 = CYP3A4 (Homo sapiens (Human), UniProt P08684); assay: Fluorescent High Throughput P450 assay, CYP3A4; type: biochemical; conditions: substrate BFC; read-out: CYP3A4 IC50 (Mean ± S.D.)
Description: as §4

PBMCs = assay: IL-6 and TNF-alpha secretion in PBMCs from three donors (ELISA); type: cell-based, human
Description: EC50 values were determined for control and each drug candidate for IL-6 and TNF-alpha secretion. […] The cells were treated with TLR7 agonists for 24 hours in 7 doses. The conditioned media was removed for ELISA analyses for IL-6 and TNF-alpha, and cell survival determined by the XTT method according to the protocol from the supplier. […] Concentrations of IL-6 and TNF-alpha were determined by ELISA from R&D Systems using the Microsoft Excel Software. The results were analyzed in Graph Pad Prism in order to prepare dose-response curves, and for determination of EC50 values.

CYP2E1 = CYP2E1 (Homo sapiens (Human), UniProt P05181); assay: Fluorescent High Throughput P450 assay, CYP2E1; type: biochemical; conditions: substrate MFC; read-out: CYP2E1 IC50 (Mean ± S.D.)
Description: as §4

CYP2D6 = CYP2D6 (Homo sapiens (Human), UniProt P10635); assay: Fluorescent High Throughput P450 assay, CYP2D6; type: biochemical; conditions: substrate AMMC; read-out: CYP2D6 IC50 (Mean ± S.D.)
Description: as §4

[2] = test system: Salmonella typhimurium TA1535, TA1537, TA98, TA100; assay: Bacterial mutation assay, Salmonella typhimurium; conditions: absence or presence of S9 metabolism
Description: The five tester strains TA1535, TA1537, TA98, TA100 and WP2 uvrA were used. Experiments were performed both in the absence and presence of metabolic activation, using liver S9 fraction from rats pre-treated with phenobarbitone and betanaphthoflavone. SC12 was used as a solution in dimethylsulfoxide (DMSO).

[3] = test system: HLA-DR+/CD11c-/CD123+ pDCs; assay: FACS analysis of plasmacytoid DC activation in whole blood; type: cell-based, human; conditions: 24 hours, 0.1 and 0.5 uM, three donors
Description: (§1) A flow cytometric analysis was performed on whole blood from three donors after treatment with two compound concentrations for 24 h. The FACS analysis for donor 1 and donor 2 was made on another day than donor 3. The compound concentrations were as follows:
(§2) The FACS analysis was used to identify whether the test compounds could induce activation of B cells, and two different subsets of dendritic cells, namely the myeloid CD11c+/CD123− DCs and the plasmacytoid CD11c−/CD123+ DCs. The following markers were studied to identify the activation status of the different subsets:
(§3) The FACS staining was performed according to the manufacturer's instructions. Lysis of red blood cells was performed before FACS staining in order to minimize auto-florescence. To include as many B cells and DCs in the study as possible the FACS analyses were performed on 500,000 cells in total for each staining. A P1 gate was set only to include relevant cells on FSC vs. SSC (see FIGS. 12-15). The results of the individual analysis were present as Mean Fluorescence Intensity
The analysis of pDCs was based on HLA-DR+/CD11c−/CD123+ cells, thus all analyzed cells were included in the HLA-DR+ (P3) gate and CD11c−/CD123+(Q1) gate. (FIGS. 13-15).

HLA-DR+/CD20+ B cells = assay: FACS analysis of B cell activation (CD40) in whole blood; type: cell-based, human; conditions: 24 hours, 2 and 10 uM, three donors
Description: as §1
B cell activation: 2 and 10 uM
as §2, §3
The analysis of expression of the activation marker CD40 on B cells was made on double positive HLA-DR (MHC class II) (P4 gate) and CD20 cells (B cell marker) (P8 gate).

CYP2E1, sequence (P05181 whole entry, looked up): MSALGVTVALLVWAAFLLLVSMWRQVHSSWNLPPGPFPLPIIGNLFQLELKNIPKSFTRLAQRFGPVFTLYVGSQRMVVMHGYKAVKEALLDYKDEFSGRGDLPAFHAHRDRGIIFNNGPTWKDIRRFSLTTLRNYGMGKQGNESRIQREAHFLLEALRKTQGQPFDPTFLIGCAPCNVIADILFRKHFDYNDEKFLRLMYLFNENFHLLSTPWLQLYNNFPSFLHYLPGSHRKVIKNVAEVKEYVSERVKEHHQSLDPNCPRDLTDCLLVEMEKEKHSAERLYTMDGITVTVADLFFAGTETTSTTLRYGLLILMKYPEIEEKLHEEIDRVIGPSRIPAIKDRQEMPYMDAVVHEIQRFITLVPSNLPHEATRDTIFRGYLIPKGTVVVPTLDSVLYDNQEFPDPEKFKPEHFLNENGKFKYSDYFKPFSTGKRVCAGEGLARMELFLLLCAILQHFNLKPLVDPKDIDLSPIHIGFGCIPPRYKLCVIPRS
CYP2D6, sequence (P10635 whole entry, looked up): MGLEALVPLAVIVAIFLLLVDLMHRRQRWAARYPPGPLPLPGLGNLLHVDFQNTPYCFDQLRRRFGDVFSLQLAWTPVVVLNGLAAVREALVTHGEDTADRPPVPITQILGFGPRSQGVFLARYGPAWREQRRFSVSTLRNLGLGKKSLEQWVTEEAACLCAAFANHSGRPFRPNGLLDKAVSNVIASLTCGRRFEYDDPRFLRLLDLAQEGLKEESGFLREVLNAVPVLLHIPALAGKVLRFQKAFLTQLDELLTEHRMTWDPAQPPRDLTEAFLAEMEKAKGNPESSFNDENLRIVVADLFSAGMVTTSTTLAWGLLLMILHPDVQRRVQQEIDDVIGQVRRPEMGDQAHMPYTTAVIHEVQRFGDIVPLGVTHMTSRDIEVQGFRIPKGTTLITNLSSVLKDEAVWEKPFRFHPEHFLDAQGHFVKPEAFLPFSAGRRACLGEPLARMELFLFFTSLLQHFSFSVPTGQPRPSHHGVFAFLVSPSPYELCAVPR
CYP1A2, sequence (P05177 whole entry, looked up): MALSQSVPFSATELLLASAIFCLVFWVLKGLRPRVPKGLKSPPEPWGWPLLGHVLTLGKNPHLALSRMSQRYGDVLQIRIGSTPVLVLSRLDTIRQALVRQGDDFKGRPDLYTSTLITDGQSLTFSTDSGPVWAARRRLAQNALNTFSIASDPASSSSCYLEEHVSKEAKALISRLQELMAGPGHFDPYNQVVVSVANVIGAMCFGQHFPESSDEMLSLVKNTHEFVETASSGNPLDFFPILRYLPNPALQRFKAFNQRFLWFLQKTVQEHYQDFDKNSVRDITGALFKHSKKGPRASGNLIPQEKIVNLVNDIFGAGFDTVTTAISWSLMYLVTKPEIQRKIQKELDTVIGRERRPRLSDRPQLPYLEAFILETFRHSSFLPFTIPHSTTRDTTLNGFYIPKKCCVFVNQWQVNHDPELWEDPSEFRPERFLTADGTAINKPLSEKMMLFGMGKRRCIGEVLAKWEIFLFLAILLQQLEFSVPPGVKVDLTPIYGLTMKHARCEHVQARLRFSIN
CYP3A4, sequence (P08684 whole entry, looked up): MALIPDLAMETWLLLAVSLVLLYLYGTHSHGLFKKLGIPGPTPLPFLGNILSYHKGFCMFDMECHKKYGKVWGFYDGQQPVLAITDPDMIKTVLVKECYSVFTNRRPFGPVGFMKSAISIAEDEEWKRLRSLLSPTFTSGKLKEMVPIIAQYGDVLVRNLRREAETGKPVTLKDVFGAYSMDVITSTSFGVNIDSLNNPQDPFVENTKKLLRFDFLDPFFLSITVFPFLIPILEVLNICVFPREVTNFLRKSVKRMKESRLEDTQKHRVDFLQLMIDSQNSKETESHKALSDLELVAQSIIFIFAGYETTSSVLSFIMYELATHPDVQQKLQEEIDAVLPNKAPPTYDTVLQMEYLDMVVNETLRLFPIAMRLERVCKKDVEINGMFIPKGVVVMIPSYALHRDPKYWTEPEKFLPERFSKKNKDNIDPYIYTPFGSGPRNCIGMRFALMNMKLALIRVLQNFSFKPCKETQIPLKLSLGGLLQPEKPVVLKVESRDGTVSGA

Question: With CCCCCCCCCCCC(=O)OCC(COP(=O)(O)OCCNC(=O)c1ccc(Cn2c(=O)[nH]c3c(N)nc(OCCOC)nc32)cc1)OC(=O)CCCCCCCCCCC (centres unmarked) [SC12] as the compound, how does the “Cell numbers (electric conductance, real-time cell analysis)” value ([1]; 4 cutaneous SCC cell lines, versus untreated control) read?
Answer: The value was “reduced cell numbers”.

Question: And the “Morphology and proliferation (microscopy)” value ([1]; day 3, 120 microM)?
Answer: Its value is “cell detachment, morphological changes and inhibition of proliferation”.

Question: What about the IC50 (CYP1A2) of the same compound?
Answer: Its IC50 is greater than 100 µM.

Question: And the EC50 (human PBMCs; Donor 1, listed as SC12 new 20288)?
Answer: Its EC50 is 1.87 µM.

Question: What about the EC50 (human PBMCs; Donor 1, listed as SC12 old CH730/2/13D) of the same compound?
Answer: Its EC50 is 2.01 µM.

Question: What about the EC50 (human PBMCs; Donor 2, listed as SC12 new 20288) of the same compound?
Answer: The EC50 was 0.947 µM.

Question: And the EC50 (human PBMCs; Donor 2, listed as SC12 old CH730/2/13D)?
Answer: The EC50 was 1.03 µM.

Question: And the IC50 (CYP3A4)?
Answer: Its IC50 is 13.6 ± 0.7 µM.

Question: What about the EC50 (PBMCs; D1, first experiments on three donors, read-out: EC50 values, IL-6 secretion) of the same compound?
Answer: Its EC50 is 1.44 µM.

Question: And the EC50 (PBMCs; D2, first experiments on three donors, read-out: EC50 values, IL-6 secretion)?
Answer: Its EC50 is 0.864 µM.

Question: What about the EC50 (PBMCs; D3, first experiments on three donors, read-out: EC50 values, IL-6 secretion) of the same compound?
Answer: Its EC50 is 2.78 µM.

Question: What about the EC50 (PBMCs; Donor 1, 24 hours, read-out: IL-6 secretion MC50) of the same compound?
Answer: The EC50 was 1.44 µM.

Question: And the EC50 (PBMCs; Donor 1, 24 hours, read-out: TNFa secretion MC50)?
Answer: The EC50 was 0.995 µM.

Question: And the EC50 (PBMCs; Donor 2, 24 hours, read-out: IL-6 secretion MC50)?
Answer: Its EC50 is 0.864 µM.

Question: What about the EC50 (PBMCs; Donor 2, 24 hours, read-out: TNFa secretion MC50) of the same compound?
Answer: Its EC50 is 0.275 µM.

Question: And the EC50 (PBMCs; Donor 3, 24 hours, read-out: IL-6 secretion MC50)?
Answer: Its EC50 is 2.78 µM.

Question: What about the EC50 (PBMCs; Donor 3, 24 hours, read-out: TNFa secretion MC50) of the same compound?
Answer: Its EC50 is 0.121 µM.

Question: And the EC50 (PBMCs; average of three donors, read-out: IL-6 secretion Average EC50)?
Answer: Its EC50 is 1.7 µM.

Question: What about the EC50 (PBMCs; average of three donors, read-out: TNFa secretion Average EC50) of the same compound?
Answer: The EC50 was 0.464 µM.

Question: And the IC50 (CYP2E1)?
Answer: The IC50 was 9.2 ± 0.1 µM.

Question: What about the IC50 (CYP2D6) of the same compound?
Answer: Its IC50 is 67 ± 3.8 µM.

Question: And the “Toxicity to tester strains” value ([2]; 50.0-5000 micrograms/plate)?
Answer: The value was “No toxicity was observed”.

Question: What about the Reverse mutation ([2]; up to 5000 micrograms/plate) of the same compound?
Answer: Its Reverse mutation is “does not induce reverse mutation”.

Question: What about the “CD80 expression on pDCs” value [3] of the same compound?
Answer: Its value is “induces a slightly higher CD80 expression than compound A”.

Question: What about the “CD86 expression on pDCs” value [3] of the same compound?
Answer: Its value is “tendency to induce higher CD86 expression than compound A”.

Question: And the “CD40 expression (MFI) on B cells” value (HLA-DR+/CD20+ B cells)?
Answer: The value was “induced CD40 expression in donor 1 and donor 2 in all tested concentrations”.
